Experimental data from ChEMBL document CHEMBL1201862, “PubChem BioAssay data set” (2004).
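Protocol summary: plate cells (96-well), add compound at 5 concentrations, incubate 48 h, interpolate endpoints linearly. Here, GI50 denotes the concentration required for 50% inhibition of growth.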 Active and inactive are the calls of the source. No stated cut-off is given here; in the data, active = GI50 up to about 1.1 µM and inactive = higher.

Legend:
Assay in all cases: NCI tumour cell line growth inhibition, 48 h
OVCAR-3 = system: OVCAR-3
MOLT-4 = system: MOLT-4
HOP-92 = system: HOP-92
HL-60 = system: HL-60
HCT-15 = system: HCT-15
SF-539 = system: SF-539
SF-295 = system: SF-295
TK-10 = system: TK-10
NCI-H460 = system: NCI-H460
EKVX = system: EKVX
LOX IMVI = system: LOX IMVI
SN12C = system: SN12C
DMS-114 = system: DMS-114
SK-MEL-5 = system: SK-MEL-5
HOP-62 = system: HOP-62
M19-MEL = system: M19-MEL
ACHN = system: ACHN
K562 = system: K562
RPMI-8226 = system: RPMI-8226
COLO 205 = system: COLO 205
KM12 = system: KM12
IGROV-1 = system: IGROV-1
SF-268 = system: SF-268
DLD-1 = system: DLD-1
SK-MEL-28 = system: SK-MEL-28
NCI-H522 = system: NCI-H522
HCC 2998 = system: HCC 2998
SNB-78 = system: SNB-78
UACC-257 = system: UACC-257
SNB-75 = system: SNB-75
SW-620 = system: SW-620
HT-29 = system: HT-29
KM-20L2 = system: KM-20L2
A498 = system: A498
Malme-3M = system: Malme-3M
CAKI-1 = system: CAKI-1
SK-MEL-2 = system: SK-MEL-2
OVCAR-5 = system: OVCAR-5
CCRF-CEM = system: CCRF-CEM
RXF 631 = system: RXF 631
SK-OV-3 = system: SK-OV-3
OVCAR-8 = system: OVCAR-8
UO-31 = system: UO-31
A549 = system: A549
UACC-62 = system: UACC-62
DMS-273 = system: DMS-273
SNB-19 = system: SNB-19
786-0 = system: 786-0
U-251 = system: U-251
NCI-H23 = system: NCI-H23
HOP-18 = system: HOP-18
RXF 393 = system: RXF 393
NCI-H226 = system: NCI-H226
M14 = system: M14
OVCAR-4 = system: OVCAR-4
SR = system: SR
LXFL 529 = system: LXFL 529
HCT-116 = system: HCT-116

Question: What does the source list for `CC(=O)NNc1nc(C)c(C(=O)/C=C/c2ccc(Cl)c(Cl)c2)s1`?
Answer: GI50 (OVCAR-3): > 100 µM (inactive); GI50 (MOLT-4): > 100 µM (inactive); GI50 (HOP-92): > 100 µM (inactive); GI50 (HL-60): > 100 µM (inactive); GI50 (HCT-15): > 100 µM; GI50 (SF-539): > 100 µM (inactive); GI50 (SF-295): > 100 µM (inactive); GI50 (TK-10): > 100 µM (inactive); GI50 (NCI-H460): > 100 µM (inactive); GI50 (EKVX): > 100 µM (inactive); GI50 (LOX IMVI): > 100 µM (inactive); GI50 (SN12C): > 100 µM (inactive); GI50 (DMS-114): > 100 µM (inactive); GI50 (SK-MEL-5): > 100 µM (inactive); GI50 (HOP-62): > 100 µM (inactive); GI50 (M19-MEL): > 100 µM (inactive); GI50 (ACHN): > 100 µM (inactive); GI50 (K562): > 100 µM (inactive); GI50 (RPMI-8226): > 100 µM (inactive); GI50 (COLO 205): > 100 µM (inactive); GI50 (KM12): > 100 µM (inactive); GI50 (IGROV-1): > 100 µM (inactive); GI50 (SF-268): > 100 µM (inactive); GI50 (DLD-1): > 100 µM (inactive); GI50 (SK-MEL-28): > 100 µM (inactive); GI50 (NCI-H522): 95.9 µM (inactive); GI50 (HCC 2998): > 100 µM (inactive); GI50 (SNB-78): > 100 µM (inactive); GI50 (UACC-257): > 100 µM (inactive); GI50 (SNB-75): > 100 µM (inactive); GI50 (SW-620): > 100 µM (inactive); GI50 (HT-29): > 100 µM (inactive); GI50 (KM-20L2): > 100 µM (inactive); GI50 (A498): > 100 µM (inactive); GI50 (Malme-3M): > 100 µM (inactive); GI50 (CAKI-1): > 100 µM (inactive); GI50 (SK-MEL-2): > 100 µM (inactive); GI50 (OVCAR-5): > 100 µM (inactive); GI50 (CCRF-CEM): 70.5 µM (inactive); GI50 (RXF 631): > 100 µM (inactive); GI50 (SK-OV-3): > 100 µM (inactive); GI50 (OVCAR-8): > 100 µM (inactive); GI50 (UO-31): > 100 µM (inactive); GI50 (A549): > 100 µM (inactive); GI50 (UACC-62): > 100 µM (inactive); GI50 (DMS-273): > 100 µM (inactive); GI50 (SNB-19): > 100 µM (inactive); GI50 (786-0): > 100 µM (inactive); GI50 (U-251): > 100 µM (inactive); GI50 (NCI-H23): > 100 µM (inactive); GI50 (HOP-18): > 100 µM (inactive); GI50 (RXF 393): > 100 µM (inactive)

Question: `COc1cccc(CC(C)N)c1` (centres undefined) was tested. Which GI50 (OVCAR-3) did it give?
Answer: The GI50 was > 100 µM (inactive).

Question: What about the GI50 (MOLT-4) of the same compound?
Answer: Its GI50 is > 100 µM (inactive).

Question: What about the GI50 (HOP-92) of the same compound?
Answer: Its GI50 is > 100 µM (inactive).

Question: What about the GI50 (HL-60) of the same compound?
Answer: Its GI50 is > 100 µM (inactive).

Question: And the GI50 (HCT-15)?
Answer: Its GI50 is over 100 µM.

Question: And the GI50 (SF-539)?
Answer: The GI50 was > 100 µM (inactive).

Question: And the GI50 (SF-295)?
Answer: Its GI50 is > 100 µM (inactive).

Question: What about the GI50 (NCI-H226) of the same compound?
Answer: The GI50 was > 100 µM (inactive).

Question: And the GI50 (M14)?
Answer: The GI50 was > 100 µM (inactive).

Question: What about the GI50 (TK-10) of the same compound?
Answer: The GI50 was > 100 µM (inactive).

Question: And the GI50 (NCI-H460)?
Answer: The GI50 was > 100 µM (inactive).

Question: What about the GI50 (EKVX) of the same compound?
Answer: Its GI50 is > 100 µM (inactive).

Question: And the GI50 (LOX IMVI)?
Answer: Its GI50 is > 100 µM (inactive).

Question: What about the GI50 (SN12C) of the same compound?
Answer: Its GI50 is > 100 µM (inactive).

Question: And the GI50 (DMS-114)?
Answer: Its GI50 is > 100 µM (inactive).

Question: And the GI50 (SK-MEL-5)?
Answer: The GI50 was > 100 µM (inactive).

Question: And the GI50 (HOP-62)?
Answer: The GI50 was > 100 µM (inactive).

Question: And the GI50 (OVCAR-4)?
Answer: The GI50 was > 100 µM (inactive).

Question: What about the GI50 (ACHN) of the same compound?
Answer: Its GI50 is > 100 µM (inactive).

Question: And the GI50 (K562)?
Answer: Its GI50 is > 100 µM (inactive).

Question: And the GI50 (RPMI-8226)?
Answer: The GI50 was > 100 µM (inactive).

Question: And the GI50 (SR)?
Answer: The GI50 was > 100 µM (inactive).

Question: What about the GI50 (COLO 205) of the same compound?
Answer: The GI50 was > 100 µM (inactive).

Question: What about the GI50 (KM12) of the same compound?
Answer: Its GI50 is > 100 µM (inactive).

Question: What about the GI50 (IGROV-1) of the same compound?
Answer: Its GI50 is > 100 µM (inactive).

Question: And the GI50 (SF-268)?
Answer: The GI50 was > 100 µM (inactive).

Question: What about the GI50 (DLD-1) of the same compound?
Answer: The GI50 was > 100 µM (inactive).

Question: And the GI50 (SK-MEL-28)?
Answer: Its GI50 is > 100 µM (inactive).

Question: And the GI50 (NCI-H522)?
Answer: Its GI50 is > 100 µM (inactive).

Question: What about the GI50 (HCC 2998) of the same compound?
Answer: Its GI50 is > 100 µM (inactive).

Question: And the GI50 (SNB-78)?
Answer: The GI50 was > 100 µM (inactive).

Question: And the GI50 (UACC-257)?
Answer: Its GI50 is > 100 µM (inactive).

Question: What about the GI50 (SNB-75) of the same compound?
Answer: The GI50 was > 100 µM (inactive).

Question: And the GI50 (SW-620)?
Answer: The GI50 was > 100 µM (inactive).

Question: And the GI50 (HT-29)?
Answer: Its GI50 is > 100 µM (inactive).

Question: And the GI50 (KM-20L2)?
Answer: The GI50 was > 100 µM (inactive).

Question: And the GI50 (A498)?
Answer: The GI50 was > 100 µM (inactive).

Question: What about the GI50 (Malme-3M) of the same compound?
Answer: The GI50 was > 100 µM (inactive).

Question: What about the GI50 (CAKI-1) of the same compound?
Answer: Its GI50 is > 100 µM (inactive).

Question: And the GI50 (SK-MEL-2)?
Answer: The GI50 was > 100 µM (inactive).

Question: And the GI50 (LXFL 529)?
Answer: Its GI50 is > 100 µM (inactive).

Question: And the GI50 (OVCAR-5)?
Answer: The GI50 was > 100 µM (inactive).

Question: And the GI50 (CCRF-CEM)?
Answer: Its GI50 is > 100 µM (inactive).

Question: And the GI50 (RXF 631)?
Answer: The GI50 was > 100 µM (inactive).

Question: And the GI50 (SK-OV-3)?
Answer: Its GI50 is > 100 µM (inactive).

Question: And the GI50 (OVCAR-8)?
Answer: The GI50 was > 100 µM (inactive).

Question: What about the GI50 (UO-31) of the same compound?
Answer: Its GI50 is > 100 µM (inactive).

Question: And the GI50 (A549)?
Answer: Its GI50 is > 100 µM (inactive).

Question: What about the GI50 (HCT-116) of the same compound?
Answer: Its GI50 is > 100 µM (inactive).

Question: And the GI50 (UACC-62)?
Answer: Its GI50 is > 100 µM (inactive).

Question: And the GI50 (DMS-273)?
Answer: Its GI50 is > 100 µM (inactive).

Question: And the GI50 (SNB-19)?
Answer: The GI50 was > 100 µM (inactive).

Question: And the GI50 (786-0)?
Answer: Its GI50 is > 100 µM (inactive).

Question: And the GI50 (U-251)?
Answer: The GI50 was > 100 µM (inactive).

Question: And the GI50 (NCI-H23)?
Answer: The GI50 was > 100 µM (inactive).

Question: What about the GI50 (HOP-18) of the same compound?
Answer: The GI50 was > 100 µM (inactive).

Question: What about the GI50 (RXF 393) of the same compound?
Answer: The GI50 was > 100 µM (inactive).
